Columns and labels:
rat HIF2α = molecular target: T1, rat HIF2α (Rattus norvegicus, UniProt Q9JHS1); test: isothermal titration calorimetry (iTC200), purified PAS-B domain titrated into PT2567; assay type: binding
T1 construct: gene Epas1; PAS-B domain (rat HIF2α-B, made from the human HIF2α-B expression vector by mutating T262L, I265V and I326V)

HIF2α = molecular target: T2, HIF2α (Homo sapiens, UniProt Q99814); test: as above; assay type: binding
T2 construct: gene EPAS1; PAS-B domain (human HIF2α-B)
T2 sequence (Q99814 240-350 limits assumed): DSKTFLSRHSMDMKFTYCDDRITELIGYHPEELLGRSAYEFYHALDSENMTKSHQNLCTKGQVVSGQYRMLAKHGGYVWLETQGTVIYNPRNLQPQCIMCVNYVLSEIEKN

T1 sequence (Q9JHS1 240-350 limits assumed): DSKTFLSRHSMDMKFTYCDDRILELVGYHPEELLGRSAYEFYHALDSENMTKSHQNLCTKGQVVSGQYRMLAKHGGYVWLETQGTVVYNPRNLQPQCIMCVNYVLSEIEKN

Kd (rat HIF2α): 29 nM
Kd (HIF2α): 30 nM
Substance: PT2567
